Counter-ions that a name gives are not always drawn.
system: inflammation induced by tetradecanoyl phorbol acetate (TPA); assay: TPA inflammation inhibition test (TPA-induced mouse ear edema); format: in vivo, mice; conditions: test compound 100 mg/ear applied topically, edema measured four hours later
Description: One such model is the inflammation induced by tetradecanoyl phorbol acetate (TPA), modified from the method of Kuehl et al., Nature, 1977, 265, 170; and Van Arman, Clin. Pharmacol. Ther., 1974, 16, 900. The TPA model mimics many of the inflammatory change which occur in human skin diseases such as psoriasis, since elevated levels of inflammatory arachidonic acid metabolites are found and an influx of polymorphonuclear leukocytes is observed. The test procedure used to evaluate the compounds of Formula (I) is as follows: the test compound (100 mg/ear) is applied to both ears of mice in an appropriate vehicle, such as acetone, and then the inflammatory stimulus (TPA) is applied to the right ear. Four hours later, the edema is measured by removing standard size discs from the ears using a biopsy punch. A control group of animals receives TPA in vehicle applied to the right ear, and vehicle alone to the left ear. The weights of the ear discs are determined, and the suppression of swelling observed in animals treated with the test compound is determined.

Row | Structure (SMILES) | % Inhibition of Control Swelling [%]
1 | COc1ccc(C(O)CCNCC2(C)CCCC3(C)c4ccc(C(C)C)cc4CCC23)cc1.Cl (stereo not drawn) [Example 12, α-(2-([1,4a-Dimethyl-1,2,3,4,4a,9,10,10a-octahydro-7-(2-propyl)-1-phenanthrenyl]methylamino)-ethyl)-4-methoxybenzenemethanol Hydrochloride] | 27
2 | CC(C)c1ccc2c(c1)CCC1C(C)(CNCCC(O)c3ccc(F)cc3)CCCC21C (stereo not drawn) [Example 1, α-(2-[1,4a-Dimethyl-7-(2-propyl)-1,2,3,4,4a,9,10,10a-octahydro-1-phenanthren-1-yl]methylamino)ethyl)-4-fluorobenzenemethanol Hydrochloride] | 46
3 | CC(C)c1ccc2c(c1)CCC1C(C)(CNCCCC(O)c3ccc(F)cc3)CCCC21C.Cl (stereo not drawn) [Example 2, α-(3-([1,4a-Dimethyl-1,2,3,4,4a,9,10,10a-octahydro-7-(2-propyl)-1-phenanthrenyl]methylamino)propyl)-4-fluorobenzenemethanol Hydrochloride] | 57

— patent publication US5124334A, “Benzylalcohol phospholipase A2 inhibitors” (Du Pont Merck Pharmaceutical Company, priority 1989, dated 1992)
